Assay results taken from US10174016B2 (BAYER AKTIENGESELLSCHAFT, priority 2014, dated 2019).
Read-outs that look alike come from different tables or passages of the source.

Legend:
[1] = tested on: rat hepatocytes; experiment: In vitro metabolic stability in rat hepatocytes; format: in vitro ADME, Han Wistar rats; conditions: 1 μM, 1.0×10^6 cells/mL, maximal oral bioavailability calculated from half-life
Method: Determination of in vitro metabolic stability in rat hepatocytes (including calculation of hepatic in vivo blood clearance (CL))
Hepatocytes from Han Wistar rats were isolated via a 2-step perfusion method. After perfusion, the liver was carefully removed from the rat: the liver capsule was opened and the hepatocytes were gently shaken out into a Petri dish with ice-cold Williams' medium E (WME). The resulting cell suspension was filtered through sterile gaze in 50 mL falcon tubes and centrifuged at 50×g for 3 min at room temperature. The cell pellet was resuspended in 30 mL WME and centrifuged through a Percoll® gradient for 2 times at 100×g. The hepatocytes were washed again with WME and resuspended in medium containing 5% FCS. Cell viability was determined by trypan blue exclusion.
The test compound was added to a final concentration of 1 μM. […] Samples were frozen at −20° C. overnight, subsequently centrifuged for 15 minutes at 3000 rpm and the supernatant was analyzed with an Agilent 1200 HPLC-system with LCMS/MS detection.
(§1) The half-life of a test compound was determined from the concentration-time plot. From the half-life (kel: slope of concentration-time plot; half-life=ln 2/kel) the intrinsic clearances were calculated. Together with the additional parameters liver blood flow, amount of liver cells in vivo and in vitro.
(§2) Metabolic instability is often the main clearance mechanism of xenobiotica leading to a high CL and low bioavailability which may eventually result in a short half-life and a low exposure after oral administration. Thus, reducing the susceptibility of metabolic degradation usually leads to a more favourable pharmacokinetic profile. When using liver microsomes as incubation matrix main phase I metabolic reactions, typically oxidoreductive reactions by cytochrome P450 enzymes and flavin mono-oxygenases (FMO) and hydrolytic reactions by esterases/amidases/epoxidhydrolases, are described. When the incubation of the test compound is performed in a hepatocyte matrix all potential hepatic metabolic processes (phase I and phase II) are covered.

[2] = In vitro metabolic stability in liver microsomes (calculation of CL and Fmax); format: in vitro ADME, human; conditions: 1 μM, 0.5 mg/mL protein, maximal oral bioavailability calculated from half-life
Method: In Vitro Metabolic Stability Assays Determination of in vitro metabolic stability in microsomes (including calculation of hepatic in vivo blood clearance (CL) and of maximal oral bioavailability (Fmax))
The metabolic assay was started shortly afterwards by adding the test compound to the incubation at a final volume of 1 mL. Organic solvent in the incubations was limited to […] dimethylsulfoxide (DMSO) and ≤1% acetonitrile. […] Samples were frozen at −20° C. overnight, subsequently centrifuged for 15 minutes at 3000 rpm and the supernatant was analyzed with an Agilent 1200 HPLC-system with LCMS/MS detection.
as §1, with “specific” for “amount of”, “weight and microsomal protein content the hepatic” for “cells”, “vivo blood clearance (CL)” for “vivo”, “the maximal oral bioavailability (Fmax) were calculated for the different species.” for “in vitro.”
as §2

[3] = tested on: CFA-induced mechanical hyperalgesia; experiment: Rat CFA in vivo model (mechanical hyperalgesia, paw withdrawal threshold); set-up: species or system Male Sprague Dawley rats; conditions: dosed 24 hours after CFA injection
Method: Rat CFA In Vivo Model Male Sprague Dawley rats were used. Mechanical hyperalgesia was induced by injecting 25 μl of Complete Freund's Adjuvant (CFA) into the plantar surface of one hind paw. Mechanical hyperalgesia was measured using the Pressure Application Measurement apparatus (Ugo Basile, Gemonio, Italy). Briefly, a linearly increasing pressure was applied to an area of ˜50 mm2 of the plantar side of the hind paw until a behavioural response (paw withdrawal) was observed or until the pressure reached 1000 gf. The pressure at which the behavioural response occurred was recorded as the “Paw Withdrawal Threshold” (PWT). Both CFA-injected and contralateral PWTs were determined for each rat, in each treatment group and at each time point of the studies. […] Compounds were dosed 24 hours after CFA injection. Data were expressed as the mean PWT for each treatment group and at each time point. Data were analysed by performing a repeated measures two way ANOVA (time×treatment). Planned comparison of means (each versus vehicle) was performed by using a Dunnett's post hoc test, provided that a main effect was detected. […] More preferred examples of the present invention show rat CFA in vivo efficacy in the ‘Paw withdrawal threshold 6 hours post drug’ measure when dosed at 3 mg/kg p.o.

[4] = tested on: taste sensation via the tongue; conditions: clinical PhII trials, attributed to blockade of P2X2/3 channels; cited from earlier work
[5] = Human liver cytosol stability assay; format: in vitro ADME; conditions: human liver cytosol 1 mg/mL, 1 or 10 μM, 37° C.
Method: Human Liver Cytosol Stability Assay
Method description: Human liver cytosol (pooled, >30 male and female donors) was incubated with individual test compounds in order to compare the extent of depletion of test compound and formation of the respective oxidised metabolite. […] An incubation volume of 1000 μL was used. The test compound was added from a stock solution in acetonitrile at 1 or 10 μM concentration in the incubation. Incubations were performed at 37° C. Reactions were stopped at 0 h and 4 h after incubation by addition of 100 μL acetonitrile to 250 μL of incubation mixture. Precipitated proteins were removed by centrifugation at approximately 3000 rpm. The supernatants were stored at approximately −20° C. until they were analysed. […]
Data analysis: The depletion of the test compound and formation of the corresponding metabolites were determined by decrease or increase of the corresponding peak area in the chromatogram after UV detection at approximately 300 nm 4 h after incubation compared to that at 0 h after incubation. […]

[6] = target: human P2X2/3 receptor (Homo sapiens (Human), UniProt P56373+Q9UBL9); experiment: Intracellular calcium measurement (FLIPR, Fluo-4) of antagonist activity at human P2X2/3 receptors; format: cell-based; conditions: human P2X2/3, FLIPR calcium assay, agonist α,β-Me-ATP; read-out: hP2X2/3 IC50
Summary of the method: (§3)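 Cells expressing human P2X3 or P2X2/3, loaded with Fluo-4, preincubated 30 min at 37° C. with compound (1% DMSO final), then challenged with α,β-Me-ATP at its EC80. Peak FLIPR fluorescence over 90 sec gave % response; IC50, maximal inhibition and Hill slope from triplicates.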

[7] = target: human P2X3 receptor (Homo sapiens (Human), UniProt P56373); experiment: Intracellular calcium measurement (FLIPR, Fluo-4) of antagonist activity at human P2X3 receptors; format: cell-based
Summary of the method: as §3

[8] = Bidirectional Caco-2 cell permeability assay; format: in vitro ADME; conditions: human
Method: Bidirectional Caco-2 Cell Permeability Assay
Caco-2 cells (purchased from DSMZ Braunschweig, Germany) were seeded at a density of 4.5×10^4 cell per well on 24 well insert plates, 0.4 μm pore size, and grown for 15 days in Dulbecco's modified Eagle medium supplemented with 10% fetal bovine serum, 1% GlutaMAX (100×, purchased from GIBCO), 100 U/ml penicillin, 100 μg/ml streptomycin (purchased from GIBCO) and 1% non-essential amino acids (100×). Cells were maintained at 37° C. in a humidified 5% CO2 atmosphere. Medium was changed every 2-3 days. […] Test compounds were dissolved in DMSO and added to the donor chamber representing either the apical or basolateral compartment in a final concentration of 2 μM. Before and after 2 h incubation at 37° C. samples were taken from both compartments (donor and receiver chamber). Analysis of compound concentrations was done after precipitation with methanol. Analysis was performed by high-pressure liquid chromatography and a tandem mass spectrometric detector using an Agilent 1200 liquid chromatography system and an AB Sciex API4000 triple-quadrupole mass spectrometer applying the parameters, which were optimized to achieve maximum signal intensity of the corresponding test compound. Permeability (Papp) was calculated in the apical to basolateral (A→B) and basolateral to apical (B→A) directions. […] The efflux ratio basolateral (B) to apical (A) was calculated by dividing the Papp B-A by the Papp A-B.
The bidirectional Caco-2 cell permeability assay is a well-established method for predicting the in vivo absorption of drugs across the gut wall by measuring the rate of transport of a compound across the Caco-2 monolayer. Since differentiated Caco-2 cells express functional efflux transport proteins like P-gp, they are also used for identification of compounds with efflux liabilities. Intestinal efflux can decrease systemic plasma concentrations of an orally dosed compound by affecting intestinal absorption of a compound.

[9] = human P2X3, FLIPR calcium assay, agonist α,β-Me-ATP, read-out: hP2X3 IC50
[10] = read-out: human P2X3 receptor IC50

Sequence of human P2X2/3 receptor (P56373 whole entry): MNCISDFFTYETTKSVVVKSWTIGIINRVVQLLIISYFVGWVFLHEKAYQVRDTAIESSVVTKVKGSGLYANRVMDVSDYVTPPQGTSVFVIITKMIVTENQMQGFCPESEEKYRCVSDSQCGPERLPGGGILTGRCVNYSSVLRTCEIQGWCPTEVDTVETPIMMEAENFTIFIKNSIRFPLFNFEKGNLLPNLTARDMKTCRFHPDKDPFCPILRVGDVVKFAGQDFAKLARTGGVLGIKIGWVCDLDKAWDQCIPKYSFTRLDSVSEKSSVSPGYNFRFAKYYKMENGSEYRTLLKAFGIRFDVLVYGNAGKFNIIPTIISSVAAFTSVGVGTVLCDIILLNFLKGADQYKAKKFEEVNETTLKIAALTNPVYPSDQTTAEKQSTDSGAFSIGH
Sequence of human P2X2/3 receptor (Q9UBL9 whole entry): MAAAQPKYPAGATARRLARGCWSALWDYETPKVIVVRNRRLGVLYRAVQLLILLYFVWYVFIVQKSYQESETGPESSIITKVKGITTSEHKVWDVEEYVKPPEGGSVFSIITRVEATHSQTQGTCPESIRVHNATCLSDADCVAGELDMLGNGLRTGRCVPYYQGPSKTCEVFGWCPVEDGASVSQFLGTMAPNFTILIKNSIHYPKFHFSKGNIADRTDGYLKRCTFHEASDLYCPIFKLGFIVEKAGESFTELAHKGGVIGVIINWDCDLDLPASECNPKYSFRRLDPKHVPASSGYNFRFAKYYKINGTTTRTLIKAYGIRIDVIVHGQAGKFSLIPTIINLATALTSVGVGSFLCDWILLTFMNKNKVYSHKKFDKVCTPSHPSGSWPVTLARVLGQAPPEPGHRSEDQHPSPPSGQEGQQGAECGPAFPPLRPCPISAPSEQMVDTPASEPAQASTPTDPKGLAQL
Sequence of human P2X3 receptor (P56373 whole entry): as the sequence (P56373 whole entry) above

SMILES	Rat hepatocyte Fmax [1]	Human liver microsome Fmax [2]	Paw withdrawal threshold 6 hour-post drug ([3]; 3 mg/kg p.o.)	IC50 [6]	IC50 [7, 9]	other results
Cc1cnc(-c2cc(OC(C)C(C)O)cc(C(=O)N[C@H](C)c3ccc(C(F)(F)F)nn3)c2)s1 (single isomer, unassigned) [Example 183]	43%	74%				
CC(O)C(C)Oc1cc(C(=O)N[C@H](C)c2cnc(C(F)(F)F)nc2)cc(-c2ncc(Cl)s2)c1 (single isomer, unassigned) [Example 185]			630 ± 81 (*) gf			
Cc1cnc(-c2cc(OC(C)C(C)O)cc(C(=O)N[C@H](C)c3cnc(C(F)(F)F)nc3)c2)s1 (single isomer, unassigned) [Example 339]	52%	94%				
Cc1cnc(-c2cc(OC(C)C(C)O)cc(C(=O)N[C@H](C)c3cnc(C(F)(F)F)nc3)c2)s1 (single isomer, unassigned) [Example 340]	64%	90%				
COc1cc(C(C)C)c(Oc2cnc(N)nc2N)cc1S(N)(=O)=O [AF-219]						effect on taste in treated subjects [4]: leads to taste disturbances
Cc1cnc(-c2cc(O[C@H]3CCOC3)cc(C(=O)N[C@H](C)c3cnc(C(F)(F)F)nc3)c2)s1 [Example 26, 3-(5-Methyl-1,3-thiazol-2-yl)-5-[(3S)-tetrahydrofuran-3-yloxy]-N-{(1R)-1-[2-(trifluoromethyl)pyrimidin-5-yl]ethyl}benzamide]	56%	67%				Test compound turnover after 4 h [5]: 12%
Cc1cnc(-c2cc(OC3COC3)cc(C(=O)N[C@H](C)c3cnc(C(F)(F)F)nc3)c2)s1 [Example 48, 3-(5-Methyl-1,3-thiazol-2-yl)-5-(oxetan-3-yloxy)-N-{(1R)-1-[2-(trifluoromethyl)pyrimidin-5-yl]ethyl}benzamide]			817 ± 69 gf (****)	451 nM	14 nM	IC50 [7, 10]: 14 nM
Cc1cnc(-c2cc(OC[C@H]3CN(C)CCO3)cc(C(=O)N[C@H](C)c3cnc(C(F)(F)F)nc3)c2)s1 [Example 348, 3-{[(2R)-4-methylmorpholin-2-yl]methoxy}-5-(5-methyl-1,3-thiazol-2-yl)-N-{(1R)-1-[2-(trifluoromethyl)pyrimidin-5-yl]ethyl}benzamide]			633 ± 59 gf (*)	760 nM	7 nM	IC50 [7, 10]: 7 nM; Paw withdrawal threshold 6 hour-post drug ([3]; 0.3 mg/kg p.o.): 599 ± 47 gf (*); Paw withdrawal threshold 6 hour-post drug ([3]; 1 mg/kg p.o.): 601 ± 28 gf (**)
CCc1cnc(-c2cc(OC[C@H]3CN(C)CCO3)cc(C(=O)N[C@H](C)c3ccc(C(F)(F)F)nn3)c2)s1 [Example 419, 3-(5-ethyl-1,3-thiazol-2-yl)-5-{[(2R)-4-methylmorpholin-2-yl]methoxy}-N-{(1R)-1-[6-(trifluoromethyl)pyridazin-3-yl]ethyl}benzamide]	51%	74%		1140 nM	9 nM	efflux ratio at 2 h, 2 μM ([8]; Caco-2, pH 7.2, Papp B-A divided by Papp A-B): 1.7; Papp A→B at 2 h, 2 μM ([8]; Caco-2, apical to basolateral, 2 μM, 2 h, 37° C., pH 7.2): 10.4 ×10⁻⁶ cm/s; Papp B→A at 2 h, 2 μM ([8]; Caco-2, basolateral to apical, 2 μM, 2 h, 37° C., pH 7.2): 17.5 ×10⁻⁶ cm/s
